According to patent US8476298B2 (Exelixis, Inc., priority 2003, dated 2013):

Tests used:
[1] = target: T1, Flt-3 (baculovirus expressed human Flt-3 kinase domain R571-S993) (Homo sapiens, UniProt P36888); test: biochemical; settings: read-out: flt3 IC50;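 further: Luciferase-coupled chemiluminescent kinase assay, activity read as percent ATP left after a 3 h reaction at room temperature, ATP near KM, 10-point dose-response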
T1 construct: human Flt-3 kinase domain R571-S993; host or cells: baculovirus expression
T1 sequence (P36888 571-993): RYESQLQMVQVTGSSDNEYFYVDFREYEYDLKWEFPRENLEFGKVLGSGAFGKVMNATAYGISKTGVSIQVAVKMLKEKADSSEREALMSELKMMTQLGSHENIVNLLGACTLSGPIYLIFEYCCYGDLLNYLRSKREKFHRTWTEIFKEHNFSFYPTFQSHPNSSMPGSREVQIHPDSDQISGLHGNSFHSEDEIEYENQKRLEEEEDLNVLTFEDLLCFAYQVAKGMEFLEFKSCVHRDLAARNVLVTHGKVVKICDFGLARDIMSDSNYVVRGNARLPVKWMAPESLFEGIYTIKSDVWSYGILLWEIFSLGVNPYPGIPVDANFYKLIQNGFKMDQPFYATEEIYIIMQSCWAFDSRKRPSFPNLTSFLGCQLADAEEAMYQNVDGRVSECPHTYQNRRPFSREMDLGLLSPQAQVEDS

[2] = target: T2, Flt-4 (baculovirus expressed human Flt-4 kinase domain D725-R1298) (Homo sapiens, UniProt P35916); test: flt-4 Alphascreen Tyrosine Kinase assay; format: biochemical; settings: read-out: flt4 IC50;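 further: AlphaScreen chemiluminescence read-out of biotinylated poly(Glu,Tyr) 4:1 phosphorylation via streptavidin donor and PY100 anti-phosphotyrosine acceptor beads, ATP near KM, 1 hr kinase reaction, 10-point dose-response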
T2 construct: human Flt-4 kinase domain D725-R1298; host or cells: baculovirus expression

c-Kit kinase = c-Kit kinase (Homo sapiens, UniProt P10721); test: c-Kit AlphaScreen kinase assay; format: biochemical;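 further: c-Kit kinase phosphorylating biotinylated poly(Glu,Tyr), ATP near its KM, 1 h reaction at ambient temperature, AlphaScreen chemiluminescence with streptavidin donor and anti-phosphotyrosine acceptor beads, 10-point inhibitor titration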
[3] = target: T3, KDR (baculovirus expressed human KDR kinase domain D807-V1356) (Homo sapiens, UniProt P35968); test: biochemical;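 further: Luciferase-coupled chemiluminescent kinase assay, activity read as percent ATP left after 4 h reaction at ambient temperature, ATP near KM, 10-point dose-response in 384-well plates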
T3 construct: human KDR kinase domain D807-V1356; host or cells: baculovirus expression

[4] = target: T4, c-Met (baculovirus expressed human c-Met kinase domain P948-S1343) (Homo sapiens, UniProt P08581); test: c-Met Luciferase-Coupled Chemiluminescent Kinase assay (LCCA); format: biochemical;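 further: kinase activity read as percent ATP left after reaction, by luciferase-luciferin chemiluminescence, with 1 µM ATP and 1 µM poly-EY substrate, 2 h at ambient temperature, 10-point dose-response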
T4 construct: human c-Met kinase domain P948-S1343; host or cells: baculovirus expression
T4 sequence (P08581 1011-1343 limits assumed): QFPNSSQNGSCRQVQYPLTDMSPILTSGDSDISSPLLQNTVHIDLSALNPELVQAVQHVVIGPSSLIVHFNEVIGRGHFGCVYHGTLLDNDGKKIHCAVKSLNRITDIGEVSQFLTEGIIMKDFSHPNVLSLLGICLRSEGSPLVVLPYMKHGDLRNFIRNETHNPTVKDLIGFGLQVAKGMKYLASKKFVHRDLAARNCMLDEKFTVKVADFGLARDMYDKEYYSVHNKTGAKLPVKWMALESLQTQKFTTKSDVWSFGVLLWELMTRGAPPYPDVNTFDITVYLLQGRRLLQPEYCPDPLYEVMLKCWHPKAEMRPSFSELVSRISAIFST

T2 sequence (P35916 725-1298 isoform P35916-1): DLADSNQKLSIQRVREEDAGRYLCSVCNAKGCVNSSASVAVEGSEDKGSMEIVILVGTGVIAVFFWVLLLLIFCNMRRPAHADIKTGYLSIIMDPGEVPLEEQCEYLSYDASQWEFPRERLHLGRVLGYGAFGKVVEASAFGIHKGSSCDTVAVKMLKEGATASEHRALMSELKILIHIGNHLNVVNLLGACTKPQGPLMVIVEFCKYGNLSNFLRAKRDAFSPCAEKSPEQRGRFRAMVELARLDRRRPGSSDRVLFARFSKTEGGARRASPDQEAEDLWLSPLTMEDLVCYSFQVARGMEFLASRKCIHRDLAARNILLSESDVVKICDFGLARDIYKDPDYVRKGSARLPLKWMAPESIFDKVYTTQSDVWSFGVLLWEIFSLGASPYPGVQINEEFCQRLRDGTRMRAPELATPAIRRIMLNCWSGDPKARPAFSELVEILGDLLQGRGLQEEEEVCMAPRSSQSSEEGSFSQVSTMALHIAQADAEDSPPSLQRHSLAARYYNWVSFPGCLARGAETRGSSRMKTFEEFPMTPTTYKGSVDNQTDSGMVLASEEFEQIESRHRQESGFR
T3 sequence (P35968 807-1356): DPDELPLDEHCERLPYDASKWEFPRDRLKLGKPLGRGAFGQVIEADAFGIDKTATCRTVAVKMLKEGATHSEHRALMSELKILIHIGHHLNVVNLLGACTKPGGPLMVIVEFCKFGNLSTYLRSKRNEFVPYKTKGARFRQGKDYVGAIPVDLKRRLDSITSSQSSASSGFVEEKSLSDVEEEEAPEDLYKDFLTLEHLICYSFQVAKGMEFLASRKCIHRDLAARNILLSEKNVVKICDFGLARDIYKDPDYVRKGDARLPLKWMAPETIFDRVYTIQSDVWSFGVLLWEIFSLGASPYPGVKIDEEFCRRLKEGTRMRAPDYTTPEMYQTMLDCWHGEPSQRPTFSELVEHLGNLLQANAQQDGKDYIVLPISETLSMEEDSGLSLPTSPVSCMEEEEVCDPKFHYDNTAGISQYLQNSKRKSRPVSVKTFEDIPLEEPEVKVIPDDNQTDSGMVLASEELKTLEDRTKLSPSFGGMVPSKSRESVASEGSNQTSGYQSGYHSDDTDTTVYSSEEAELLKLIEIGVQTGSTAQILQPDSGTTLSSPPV
Sequence of c-Kit kinase (P10721 26-976): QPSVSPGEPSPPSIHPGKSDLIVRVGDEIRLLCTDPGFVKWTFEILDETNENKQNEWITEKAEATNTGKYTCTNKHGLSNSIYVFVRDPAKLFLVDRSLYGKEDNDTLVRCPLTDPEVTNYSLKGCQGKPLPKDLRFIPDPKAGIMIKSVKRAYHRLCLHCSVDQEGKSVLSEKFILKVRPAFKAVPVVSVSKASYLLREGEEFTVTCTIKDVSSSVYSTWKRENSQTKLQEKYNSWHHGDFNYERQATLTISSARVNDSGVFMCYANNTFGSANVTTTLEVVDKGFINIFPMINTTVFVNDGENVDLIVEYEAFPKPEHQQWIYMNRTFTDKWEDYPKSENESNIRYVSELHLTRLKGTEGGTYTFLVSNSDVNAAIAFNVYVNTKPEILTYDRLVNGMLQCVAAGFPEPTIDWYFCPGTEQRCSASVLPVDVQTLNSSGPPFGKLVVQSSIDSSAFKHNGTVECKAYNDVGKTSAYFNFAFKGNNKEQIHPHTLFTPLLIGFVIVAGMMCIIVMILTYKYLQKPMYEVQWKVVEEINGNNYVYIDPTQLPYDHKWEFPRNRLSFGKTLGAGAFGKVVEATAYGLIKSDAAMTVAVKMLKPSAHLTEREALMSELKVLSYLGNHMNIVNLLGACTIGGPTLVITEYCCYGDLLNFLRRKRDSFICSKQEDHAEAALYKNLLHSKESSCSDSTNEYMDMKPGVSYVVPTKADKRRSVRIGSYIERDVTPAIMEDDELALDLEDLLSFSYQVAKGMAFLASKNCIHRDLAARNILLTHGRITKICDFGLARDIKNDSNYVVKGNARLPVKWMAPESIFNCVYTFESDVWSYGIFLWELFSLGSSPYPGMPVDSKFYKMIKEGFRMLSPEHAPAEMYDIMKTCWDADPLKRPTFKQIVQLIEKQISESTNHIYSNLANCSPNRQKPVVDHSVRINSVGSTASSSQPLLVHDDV

SMILES | IC50 [1] | IC50 [2] | IC50 (c-Kit kinase) | IC50 [3] | IC50 [4]
COc1cc2c(Oc3ncc(NC(=O)C4(C(=O)Nc5ccc(F)cc5)CC4)cc3Cl)ccnc2cc1OCc1ccccc1 [Example 309, N-[5-chloro-6-({6-(methyloxy)-7-[(phenylmethyl)oxy]quinolin-4-yl}oxy)pyridin-3-yl]-N′-(4-fluorophenyl)cyclopropane-1,1-dicarboxamide] | 50 to 500 nM | 500 to 5000 nM | 500 to 5000 nM | 500 to 5000 nM | < 50 nM
COc1cc2ncnc(Oc3ccc(NC(=O)C4(C(=O)Nc5ccc(F)cc5)CC4)cc3)c2cc1OC [Example 310, N-(4-{[6,7-bis(methyloxy)quinazolin-4-yl]oxy}phenyl)-N′-(4-fluorophenyl)cyclopropane-1,1-dicarboxamide] | < 50 nM | < 50 nM | < 50 nM | < 50 nM | < 50 nM
COc1cc2ncnc(Oc3ccc(NC(=O)C4(C(=O)Nc5ccc(F)cc5)CC4)cc3F)c2cc1OC [Example 311, N-(4-{[6,7-bis(methyloxy)quinazolin-4-yl]oxy}-3-fluorophenyl)-N′-(4-fluorophenyl)cyclopropane-1,1-dicarboxamide] | < 50 nM | < 50 nM | 50 to 500 nM | < 50 nM | < 50 nM
COc1cc2c(Oc3ccc(NC(=O)C4(C(=O)Nc5ccc(F)cc5)CC4)cc3F)ccnc2cc1OCCCN1CCCCC1 [Example 313, N-[3-fluoro-4-({6-(methyloxy)-7-[(3-piperidin-1-ylpropyl)oxy]quinolin-4-yl}oxy)phenyl]-N′-(4-fluorophenyl)cyclopropane-1,1-dicarboxamide] | < 50 nM | < 50 nM | < 50 nM | < 50 nM | < 50 nM
COc1cc2c(Oc3ccc(NC(=O)C4(C(=O)Nc5ccc(F)cc5)CCC4)cc3F)ccnc2cc1OCCCN1CCCCC1 [Example 314, N-[3-fluoro-4-({6-(methyloxy)-7-[(3-piperidin-1-ylpropyl)oxy]quinolin-4-yl}oxy)phenyl]-N′-(4-fluorophenyl)cyclobutane-1,1-dicarboxamide] | 50 to 500 nM | < 50 nM | < 50 nM | < 50 nM | < 50 nM
COc1cc2c(Oc3ccc(NC(=O)C4(C(=O)Nc5ccc(F)cc5)CC4)cc3F)ncnc2cc1OCCCN1CCOCC1 [Example 315, N-[3-fluoro-4-({6-(methyloxy)-7-[(3-morpholin-4-ylpropyl)oxy]quinazolin-4-yl}oxy)phenyl]-N′-(4-fluorophenyl)cyclopropane-1,1-dicarboxamide] | < 50 nM | < 50 nM | < 50 nM | < 50 nM | < 50 nM
COc1cc2c(Oc3ccc(NC(=O)C4(C(=O)Nc5ccc(F)cc5)CC4)cc3F)ncnc2cc1OCC1CCN(C)CC1 [Example 316, N-{3-fluoro-4-[(6-(methyloxy)-7-{[(1-methylpiperidin-4-yl)methyl]oxy}quinazolin-4-yl)oxy]phenyl}-N′-(4-fluorophenyl)cyclopropane-1,1-dicarboxamide] | < 50 nM | < 50 nM | < 50 nM | < 50 nM | < 50 nM
COc1cc2nccc(Oc3ccc(NC(=O)C4(C(=O)Nc5ccc(F)cc5)CC4)c(C)c3)c2cc1OC [Example 317, N-(4-{[6,7-bis(methyloxy)quinolin-4-yl]oxy}-2-methylphenyl)-N′-(4-fluorophenyl)cyclopropane-1,1-dicarboxamide] | 500 to 5000 nM | < 50 nM | < 50 nM | < 50 nM | < 50 nM
COc1cc2c(Oc3ccc(NC(=O)C4(C(=O)Nc5ccc(F)cc5)CC4)c(C)n3)ccnc2cc1OCCCN1CCOCC1 [Example 318, N-(4-fluorophenyl)-N′-[2-methyl-6-({6-(methyloxy)-7-[(3-morpholin-4-ylpropyl)oxy]quinolin-4-yl}oxy)pyridin-3-yl]cyclopropane-1,1-dicarboxamide] | 50 to 500 nM | 50 to 500 nM | 50 to 500 nM | < 50 nM | < 50 nM
COc1cc2nccc(Oc3nc(C)c(NC(=O)C4(C(=O)Nc5ccc(F)cc5)CC4)cc3Cl)c2cc1OC [Example 320, N-(6-{[6,7-bis(methyloxy)quinolin-4-yl]oxy}-5-chloro-2-methylpyridin-3-yl)-N′-(4-fluorophenyl)cyclopropane-1,1-dicarboxamide] | 50 to 500 nM | 500 to 5000 nM | 500 to 5000 nM | 500 to 5000 nM | < 50 nM
COc1cc2ncnc(Oc3ccc(NC(=O)C4(C(=O)Nc5ccc(F)cc5)CC4)cc3F)c2cc1OCCCN1CCOCC1 [Example 321, N-[3-fluoro-4-({7-(methyloxy)-6-[(3-morpholin-4-ylpropyl)oxy]quinazolin-4-yl}oxy)phenyl]-N′-(4-fluorophenyl)cyclopropane-1,1-dicarboxamide] | < 50 nM | < 50 nM | 50 to 500 nM | < 50 nM | < 50 nM

Second part, the compound after the results:

IC50 [1] | IC50 [2] | IC50 (c-Kit kinase) | IC50 [3] | IC50 [4] | SMILES
< 50 nM | < 50 nM | < 50 nM | < 50 nM | < 50 nM | COc1cc2nccc(Oc3ccc(NC(=O)C4(C(=O)Nc5ccc(F)cc5)CC4)cc3F)c2cc1OCCCN1CCOCC1 [Example 322, N-[3-fluoro-4-({7-(methyloxy)-6-[(3-morpholin-4-ylpropyl)oxy]quinolin-4-yl}oxy)phenyl]-N′-(4-fluorophenyl)cyclopropane-1,1-dicarboxamide]
< 50 nM | < 50 nM | 50 to 500 nM | < 50 nM | < 50 nM | COc1cc2nccc(Oc3c(F)cc(NC(=O)C4(C(=O)Nc5ccc(F)cc5)CC4)cc3F)c2cc1OC [Example 323, N-(4-{[6,7-bis(methyloxy)quinolin-4-yl]oxy}-3,5-difluorophenyl)-N′-(4-fluorophenyl)cyclopropane-1,1-dicarboxamide]
< 50 nM | < 50 nM | < 50 nM | < 50 nM | < 50 nM | COc1cc2nccc(Oc3cc(F)c(NC(=O)C4(C(=O)Nc5ccc(F)cc5)CC4)cc3F)c2cc1OC [Example 324, N-(4-{[6,7-bis(methyloxy)quinolin-4-yl]oxy}-2,5-difluorophenyl)-N′-(4-fluorophenyl)cyclopropane-1,1-dicarboxamide]
< 50 nM | < 50 nM | 50 to 500 nM | < 50 nM | < 50 nM | COc1cc2ncnc(Oc3ccc(NC(=O)C4(C(=O)Nc5ccc(F)cc5)CC4)cc3F)c2cc1OCC1CCN(C)CC1 [Example 325, N-{3-fluoro-4-[(7-(methyloxy)-6-{[(1-methylpiperidin-4-yl)methyl]oxy}quinazolin-4-yl)oxy]phenyl}-N′-(4-fluorophenyl)cyclopropane-1,1-dicarboxamide]
50 to 500 nM | 50 to 500 nM | 50 to 500 nM | < 50 nM | < 50 nM | COc1cc2c(Oc3cc(C)c(NC(=O)C4(C(=O)Nc5ccc(F)cc5)CC4)cc3F)ccnc2cc1OCCCN1CCOCC1 [Example 326, N-[5-fluoro-2-methyl-4-({6-(methyloxy)-7-[(3-morpholin-4-ylpropyl)oxy]quinolin-4-yl}oxy)phenyl]-N′-(4-fluorophenyl)cyclopropane-1,1-dicarboxamide]
50 to 500 nM | 50 to 500 nM | 50 to 500 nM | < 50 nM | < 50 nM | COc1cc2nccc(Oc3c(F)cc(NC(=O)C4(C(=O)Nc5ccc(F)cc5)CC4)c(F)c3F)c2cc1OC [Example 327, N-(4-{[6,7-bis(methyloxy)quinolin-4-yl]oxy}-2,3,5-trifluorophenyl)-N′-(4-fluorophenyl)cyclopropane-1,1-dicarboxamide]
500 to 5000 nM | 500 to 5000 nM | 50 to 500 nM | 50 to 500 nM | < 50 nM | COc1cc2nccc(Oc3cc(C)c(NC(=O)C4(C(=O)Nc5ccc(F)cc5)CC4)cc3F)c2cc1OC [Example 328, N-(4-{[6,7-bis(methyloxy)quinolin-4-yl]oxy}-5-fluoro-2-methylphenyl)-N′-(4-fluorophenyl)cyclopropane-1,1-dicarboxamide]
500 to 5000 nM | 50 to 500 nM | 50 to 500 nM | 50 to 500 nM | < 50 nM | COc1cc2nccc(Oc3cc(Cl)c(NC(=O)C4(C(=O)Nc5ccc(F)cc5)CC4)cc3C)c2cc1OC [Example 329, N-(4-{[6,7-bis(methyloxy)quinolin-4-yl]oxy}-2-chloro-5-methylphenyl)-N′-(4-fluorophenyl)cyclopropane-1,1-dicarboxamide]
< 50 nM | < 50 nM | < 50 nM | < 50 nM | < 50 nM | COc1cc2nccc(Oc3ccc(NC(=O)C4(C(=O)Nc5ccc(F)cc5)CC4)cc3F)c2cc1O [Example 330, N-(3-fluoro-4-{[6-hydroxy-7-(methyloxy)quinolin-4-yl]oxy}phenyl)-N′-(4-fluorophenyl)cyclopropane-1,1-dicarboxamide]
